This is an account of results in patent publication US12172983B2, “EGFR inhibitors” (Blueprint Medicines Corporation, priority 2019, dated 2024).

The structures appear in SMILES notation.

Assay [1] concerns phosphorylation of EGFR (Tyr1068) in NCI-H1975 cell line that harbors the EGFR L858R T790M mutations. Put plainly: NCI-H1975 pEGFR AlphaLISA assay. The format is cell-based. The note with it: Homo sapiens, NCI-H1975, inhibition of phosphorylation of mutant EGFR in NCI-H1975 cells; 4-5 hours incubation; read-out: Ext pEGFR H1975. The essentials: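 NCI-H1975 cells (EGFR L858R/T790M) seeded overnight, then treated with compound for 4-5 h at 37 °C/5% CO2. After lysis, p-EGFR (Tyr1068) quantified by AlphaLISA SureFire Ultra with acceptor then donor beads; IC50 fitted from percent inhibition versus log concentration.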
In general terms: Alpha assays give light when donor and acceptor beads are brought close together.

A further assay deals with T1, EGFR (L858R T790M C797S) (Homo sapiens, UniProt P00533, C797S/L858R/T790M).
T1 construct: purchased SignalChem E10-122VG
T1 sequence (P00533 25-1210 T790M/C797S/L858R): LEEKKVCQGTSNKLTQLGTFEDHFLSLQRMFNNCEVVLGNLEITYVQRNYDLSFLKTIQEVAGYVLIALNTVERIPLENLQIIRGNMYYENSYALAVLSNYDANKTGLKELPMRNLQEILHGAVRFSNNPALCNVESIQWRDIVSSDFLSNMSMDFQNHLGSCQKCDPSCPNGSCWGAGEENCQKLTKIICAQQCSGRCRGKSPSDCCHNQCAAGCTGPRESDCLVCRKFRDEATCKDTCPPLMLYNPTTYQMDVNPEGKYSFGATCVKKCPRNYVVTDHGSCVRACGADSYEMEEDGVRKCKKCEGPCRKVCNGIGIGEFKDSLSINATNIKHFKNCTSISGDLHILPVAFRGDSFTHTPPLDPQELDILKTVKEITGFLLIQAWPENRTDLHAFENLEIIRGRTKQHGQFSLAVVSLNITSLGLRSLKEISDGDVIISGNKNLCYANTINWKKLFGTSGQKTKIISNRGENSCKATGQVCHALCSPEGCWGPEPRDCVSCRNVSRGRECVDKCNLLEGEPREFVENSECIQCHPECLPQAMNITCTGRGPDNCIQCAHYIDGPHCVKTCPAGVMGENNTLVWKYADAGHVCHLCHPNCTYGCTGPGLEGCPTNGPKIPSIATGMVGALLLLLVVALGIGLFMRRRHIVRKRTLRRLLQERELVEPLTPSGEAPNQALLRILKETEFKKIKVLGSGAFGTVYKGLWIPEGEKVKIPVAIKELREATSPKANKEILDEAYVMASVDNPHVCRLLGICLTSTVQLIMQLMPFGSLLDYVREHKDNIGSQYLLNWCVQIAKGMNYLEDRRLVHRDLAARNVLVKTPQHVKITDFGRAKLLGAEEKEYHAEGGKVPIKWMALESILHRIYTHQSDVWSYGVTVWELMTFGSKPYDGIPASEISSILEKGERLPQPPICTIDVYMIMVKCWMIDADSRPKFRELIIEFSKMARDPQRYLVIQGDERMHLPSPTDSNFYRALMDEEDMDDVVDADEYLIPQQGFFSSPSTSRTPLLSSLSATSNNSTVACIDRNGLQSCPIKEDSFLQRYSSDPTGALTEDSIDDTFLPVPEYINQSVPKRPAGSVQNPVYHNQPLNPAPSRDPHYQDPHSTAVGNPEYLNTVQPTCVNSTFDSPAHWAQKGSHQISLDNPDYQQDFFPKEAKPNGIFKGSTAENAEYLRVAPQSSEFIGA
Nature of the assay: Biochemical EGFR inhibition assay (Caliper mobility shift), EGFR LRTMCS mutant. As to conditions: inhibitory activity against EGFR LRTMCS mutant; apparent IC50; read-out: Ext Enz LRTMCS. The method, boiled down:
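Caliper mobility shift read-out: product and substrate peptides separated by electrophoresis and quantified. Reactions at 25° C. taken to 10–20% peptide phosphorylation, quenched with 35 mM EDTA. Apparent IC50 from percent activity vs log [compound].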

Turning to `CO[C@@H]1CCN(c2nccc(Nc3cc4c(C(C)C)ccc(N5CC(CS(C)(=O)=O)C5)c4cn3)n2)C[C@@H]1O` (single isomer, unassigned) [Compound 52, (3S,4R)-1-(4-(5-isopropyl-8-(3-(methylsulfonylmethyl)azetidin-1-yl)isoquinolin-3-ylamino)pyrimidin-2-yl)-4-methoxypiperidin-3-ol or (3R,4S)-1-(4-(5-isopropyl-8-(3-(methylsulfonylmethyl)azetidin-1-yl)isoquinolin-3-ylamino)pyrimidin-2-yl)-4-methoxypiperidin-3-ol], the IC50 is at most 0.01 µM in assay [1] and at most 0.015 µM on EGFR (L858R T790M C797S).

As for `C[C@H](CO)c1ccc(N2C[C@@H](CS(C)(=O)=O)[C@@H]2C)c2cnc(Nc3ccnc(N4CC[C@@H](O)[C@@](C)(F)C4)n3)cc12` (single isomer, unassigned) [Compound 196, (3S,4R)-3-fluoro-1-[4-({5-[(2S)-1-hydroxypropan-2-yl]-8-[(2S,3R)-3-(methanesulfonylmethyl)-2-methylazetidin-1-yl]isoquinolin-3-yl}amino)pyrimidin-2-yl]-3-methylpiperidin-4-ol or (3S,4R)-3-fluoro-1-[4-({5-[(2R)-1-hydroxypropan-2-yl]-8-[(2S,3R)-3-(methanesulfonylmethyl)-2-methylazetidin-1-yl]isoquinolin-3-yl}amino)pyrimidin-2-yl]-3-methylpiperidin-4-ol], the IC50 was 0.0101 to 0.02 µM in assay [1] and at most 0.015 µM at EGFR (L858R T790M C797S).

As to `CO[C@@H]1CCN(c2nccc(Nc3cc4c(C(C)C)ncc(N5C[C@H](CS(C)(=O)=O)[C@H]5C)c4cn3)n2)C[C@@H]1O` (single isomer, unassigned) [Compound 103, (3S,4R)-1-(4-(5-isopropyl-8-((2R,3S)-2-methyl-3-(methylsulfonylmethyl)azetidin-1-yl)-2,6-naphthyridin-3-ylamino)pyrimidin-2-yl)-4-methoxypiperidin-3-ol or (3R,4S)-1-(4-(5-isopropyl-8-((2R,3S)-2-methyl-3-(methylsulfonylmethyl)azetidin-1-yl)-2,6-naphthyridin-3-ylamino)pyrimidin-2-yl)-4-methoxypiperidin-3-ol], the IC50 is 0.0101 to 0.02 µM in assay [1] and at most 0.015 µM at EGFR (L858R T790M C797S).

For `CC(C)c1ccc(N2C[C@H](CS(C)(=O)=O)[C@H]2C)c2cnc(Nc3ccnc(N4CC[C@@H](OCCN(C)C)[C@@H](F)C4)n3)cc12` [Compound 254, N-{2-[(3S,4R)-4-[2-(dimethylamino)ethoxy]-3-fluoropiperidin-1-yl]pyrimidin-4-yl}-8-[(2R,3S)-3-(methanesulfonylmethyl)-2-methylazetidin-1-yl]-5-(propan-2-yl)isoquinolin-3-amine], the IC50 in assay [1] is at most 0.01 µM; on EGFR (L858R T790M C797S), at most 0.015 µM.

As for `CO[C@@H]1[C@H](O)CN(c2nccc(Nc3cc4c(C(C)C)ccc(N5C[C@H](CS(C)(=O)=O)[C@H]5C)c4cn3)n2)CC1(F)F` (single isomer, unassigned) [Compound 232, (3S,4S)-5,5-difluoro-1-(4-(5-isopropyl-8-((2R,3S)-2-methyl-3-(methylsulfonylmethyl)azetidin-1-yl)isoquinolin-3-ylamino)pyrimidin-2-yl)-4-methoxypiperidin-3-ol or (3R,4R)-5,5-difluoro-1-(4-(5-isopropyl-8-((2R,3S)-2-methyl-3-(methylsulfonylmethyl)azetidin-1-yl)isoquinolin-3-ylamino)pyrimidin-2-yl)-4-methoxypiperidin-3-ol], the IC50 in assay [1] was at most 0.01 µM; at EGFR (L858R T790M C797S), 0.0301 to 0.1 µM.

Take `CC(C)c1ccc(N2CC(CS(=O)(=O)C(F)F)C2)c2cnc(Nc3ccnc(N4CC[C@@H](O)[C@@](C)(F)C4)n3)cc12` (single isomer, unassigned) [Compound 219]: the values for the IC50 (in assay [1]; on EGFR (L858R T790M C797S)) were at most 0.01 µM and at most 0.015 µM, respectively.

Turning to `CO[C@@H]1[C@H](F)CN(c2nccc(Nc3cc4c(C(C)C)ccc(N5CC(CS(C)(=O)=O)C5)c4cn3)n2)C[C@@H]1O` (racemic) [Compound 146, (3S,4S,5R)-5-fluoro-1-(4-((5-isopropyl-8-(3-((methylsulfonyl)methyl)azetidin-1-yl)isoquinolin-3-yl)amino)pyrimidin-2-yl)-4-methoxypiperidin-3-ol and (3R,4R,5S)-5-fluoro-1-(4-((5-isopropyl-8-(3-((methylsulfonyl)methyl)azetidin-1-yl)isoquinolin-3-yl)amino)pyrimidin-2-yl)-4-methoxypiperidin-3-ol], the IC50 in assay [1] fell in the range of 0.0101 to 0.02 µM; on EGFR (L858R T790M C797S), 0.0151 to 0.02 µM.

`CC(C)c1ccc(N2C[C@H](CS(C)(=O)=O)[C@H]2C)c2cnc(Nc3ccnc(N4CC[C@](C)(O)[C@H](O)C4)n3)cc12` (single isomer, unassigned) [Compound 100, (3R,4S)-1-[4-({8-[(2R,3S)-3-(methanesulfonylmethyl)-2-methylazetidin-1-yl]-5-(propan-2-yl)isoquinolin-3-yl}amino)pyrimidin-2-yl]-4-methylpiperidine-3,4-diol or (3S,4R)-1-[4-({8-[(2R,3S)-3-(methanesulfonylmethyl)-2-methylazetidin-1-yl]-5-(propan-2-yl)isoquinolin-3-yl}amino)pyrimidin-2-yl]-4-methylpiperidine-3,4-diol]: the IC50 in assay [1] is at most 0.01 µM; at EGFR (L858R T790M C797S), at most 0.015 µM.

On to `CC(C)c1ccc(N2C[C@H](CS(C)(=O)=O)[C@H]2C)c2cnc(Nc3ccnc(N4CC[C@H](OCC(C)(C)O)[C@H](F)C4)n3)cc12` [Compound 255, 1-{[(3R,4S)-3-fluoro-1-[4-({8-[(2R,3S)-3-(methanesulfonylmethyl)-2-methylazetidin-1-yl]-5-(propan-2-yl)isoquinolin-3-yl}amino)pyrimidin-2-yl]piperidin-4-yl]oxy}-2-methylpropan-2-ol], for which the values for the IC50 (in assay [1]; on EGFR (L858R T790M C797S)) were at most 0.01 µM and 0.0201 to 0.03 µM, respectively.

Take `CC(C)c1ccc(N2C[C@H](CS(C)(=O)=O)[C@H]2C)c2cnc(Nc3ccnc(N4CC[C@@H](OCCO)[C@@H](F)C4)n3)cc12` [Compound 229, 2-((3S,4R)-3-fluoro-1-(4-(5-isopropyl-8-((2R,3S)-2-methyl-3-(methylsulfonylmethyl)azetidin-1-yl)isoquinolin-3-ylamino)pyrimidin-2-yl)piperidin-4-yloxy)ethanol]: the values for the IC50 (in assay [1]; on EGFR (L858R T790M C797S)) were at most 0.01 µM and at most 0.015 µM, respectively.

As for `CC(C)c1cc(F)c(N2CC(CS(C)(=O)=O)C2)c2cnc(Nc3ccnc(N4CC[C@@H](O)[C@@](C)(F)C4)n3)cc12` (single isomer, unassigned) [Compound 157], the IC50 is at most 0.01 µM in assay [1] and at most 0.015 µM at EGFR (L858R T790M C797S).

For the compound `C[C@@H]1[C@@H](CS(C)(=O)=O)CN1c1ccc(C2CC2)c2cc(Nc3ccnc(N4CC[C@@H](O)[C@@](C)(F)C4)n3)ncc12` (single isomer, unassigned) [Compound 90], the values for the IC50 (in assay [1]; on EGFR (L858R T790M C797S)) were at most 0.01 µM and at most 0.015 µM, respectively.

Take `[2H]C([2H])([2H])O[C@H]1CCN(c2nccc(Nc3cc4c(C(C)C)ccc(N5CC(CS(C)(=O)=O)C5)c4cn3)n2)C[C@H]1F` (single isomer, unassigned) [Compound 81]: the IC50 in assay [1] was at most 0.01 µM; on EGFR (L858R T790M C797S) it was at most 0.015 µM.

Take `CO[C@@H]1CCN(c2nccc(Nc3cc4c(C(C)C)nnc(N5C[C@H](CS(C)(=O)=O)[C@H]5C)c4cn3)n2)C[C@@H]1F` [Compound 150, N-(2-((3S,4R)-3-fluoro-4-methoxypiperidin-1-yl)pyrimidin-4-yl)-1-isopropyl-4-((2R,3S)-2-methyl-3-(methylsulfonylmethyl)azetidin-1-yl)pyrido[4,3-d]pyridazin-7-amine]: the IC50 in assay [1] is 0.0201 to 0.03 µM; at EGFR (L858R T790M C797S) it was at most 0.015 µM.

Regarding `COCCO[C@H]1CCN(c2nccc(Nc3cc4c(C(C)C)ccc(N5C[C@H](CS(C)(=O)=O)[C@H]5C)c4cn3)n2)C[C@H]1F` (single isomer, unassigned) [Compound 246], the IC50 is at most 0.01 µM in assay [1] and at most 0.015 µM on EGFR (L858R T790M C797S).

With `CC(CF)c1cnc(N2CC(CS(C)(=O)=O)C2)c2cnc(Nc3ccnc(N4CC[C@@H](O)[C@@](C)(F)C4)n3)cc12` (single isomer, unassigned) [Compound 163], the IC50 in assay [1] is 0.0301 to 0.05 µM; on EGFR (L858R T790M C797S), at most 0.015 µM.

Regarding `CCS(=O)(=O)CC1CN(c2ncc(C(C)C)c3cc(Nc4ccnc(N5CCN[C@@H](C(F)F)C5)n4)ncc23)C1` (single isomer, unassigned) [Compound 160, N-{2-[(3R)-3-(difluoromethyl)piperazin-1-yl]pyrimidin-4-yl}-8-{3-[(ethanesulfonyl)methyl]azetidin-1-yl}-5-(propan-2-yl)-2,7-naphthyridin-3-amine or N-{2-[(3S)-3-(difluoromethyl)piperazin-1-yl]pyrimidin-4-yl}-8-{3-[(ethanesulfonyl)methyl]azetidin-1-yl}-5-(propan-2-yl)-2,7-naphthyridin-3-amine], the IC50 lay within 0.0301 to 0.05 µM in assay [1] and 0.0151 to 0.02 µM on EGFR (L858R T790M C797S).

As for `CCS(=O)(=O)CC1CN(c2ccc(C(C)C)c3cc(Nc4ccnc(N5CC[C@](C)(O)[C@H](F)C5)n4)ncc23)C1` (single isomer, unassigned) [Compound 277], the IC50 in assay [1] is 0.0101 to 0.02 µM; on EGFR (L858R T790M C797S), at most 0.015 µM.
